Data reported in patent EP0026867A1, “Peptidylphosphonic acids, their preparation and use, and pharmaceutical preparations containing them” (F. HOFFMANN-LA ROCHE & CO. Aktiengesellschaft, priority 1979, dated 1981).
≈ marks a conversion by molar mass, not a printed value.

Experiments:
Assay in all cases: in vitro antibacterial test (M.I.C.)
Format in all cases: cell-based
[1] = test system: Klebsiella spp.
Text: (§1) Die folgende Tabelle gibt die Resultate von in vitro Versuchen unter Verwendung von (1R)-1-(L-Pyroglutamyl-L-norvalyl-L-norvalylamirio)-ethylphosphonsäure gegen einige repräsentative pathogene Mikroorganismen wieder.

[2] = test system: S. marcescens; conditions: Serratia marcescens
Text: as §1

[3] = test system: S. albus; conditions: Staphylococcus albus
Text: as §1

[4] = test system: S. faecalis; conditions: Enterococcus faecalis
Text: as §1

[5] = test system: S. pyogenes; conditions: Streptococcus pyogenes
Text: as §1

[6] = test system: S. pneumoniae; conditions: Streptococcus pneumoniae
Text: as §1

[7] = test system: Shigella spp.
Text: as §1

[8] = test system: E. coli; conditions: Escherichia coli
Text: as §1

[9] = test system: Salmonella spp.
Text: as §1

[10] = test system: H. influenzae; conditions: Haemophilus influenzae
Text: as §1

## CCC[C@H](NC(=O)[C@@H]1CCC(=O)N1)C(=O)N[C@@H](CCC)C(=O)N[C@@H](C)P(=O)(O)O [Beispiel 1, (1R)-1-(L-Pyroglutamyl-L-norvalyl-L-norvalylamino)-ethylphosphonsäure]
[1]
  MIC: 16 µg/mL (≈ 36.8 µM)
[2]
  MIC: 30 µg/mL (≈ 69.1 µM)
[3]
  MIC: 16 µg/mL (≈ 36.8 µM)
[4]
  MIC: 0.05 µg/mL (≈ 0.115 µM)
[5]
  MIC: 16 µg/mL (≈ 36.8 µM)
[6]
  MIC: 2.4 µg/mL (≈ 5.52 µM)
[7]
  MIC: 1.1 µg/mL (≈ 2.53 µM)
[8]
  MIC: 0.25 µg/mL (≈ 0.575 µM)
[9]
  MIC: 20 µg/mL (≈ 46 µM)
[10]
  MIC: 0.2 µg/mL (≈ 0.46 µM)
